Reference: ChEMBL document CHEMBL3259629, “Discovery and optimization of piperidyl-1,2,3-triazole ureas as potent, selective, and in vivo-active inhibitors of α/β-hydrolase domain containing 6 (ABHD6)” (J Med Chem, 2013)

Assays:
Conditions in all cases: Neuro2a, 3 nM
[1] = target: Dipeptidyl peptidase 9 (Mus musculus) (UniProt Q8BVG4)
Description: Inhibition of DPP9 in mouse Neuro2a cells at 3 nM after 4 hrs by ABPP-SILAC assay

[2] = target: T1, Lysophosphatidylserine lipase ABHD12 (Mus musculus) (UniProt Q99LR1)
T1 sequence (whole entry): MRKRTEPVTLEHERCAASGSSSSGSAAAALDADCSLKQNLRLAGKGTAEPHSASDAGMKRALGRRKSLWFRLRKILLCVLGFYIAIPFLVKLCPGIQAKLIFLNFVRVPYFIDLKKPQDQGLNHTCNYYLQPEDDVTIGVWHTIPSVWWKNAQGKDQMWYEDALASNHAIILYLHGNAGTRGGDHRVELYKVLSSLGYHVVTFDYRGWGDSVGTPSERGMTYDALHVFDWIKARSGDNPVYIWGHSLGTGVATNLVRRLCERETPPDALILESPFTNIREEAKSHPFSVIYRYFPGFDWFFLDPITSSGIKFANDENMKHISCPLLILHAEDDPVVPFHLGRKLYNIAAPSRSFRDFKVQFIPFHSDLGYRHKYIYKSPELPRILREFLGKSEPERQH
Description: Inhibition of Abhd12 in mouse Neuro2a cells at 3 nM after 4 hrs by ABPP-SILAC assay

[3] = target: Tissue-type plasminogen activator (Mus musculus) (UniProt P11214)
Sequence of Tissue-type plasminogen activator (Mus musculus) (P11214 whole entry): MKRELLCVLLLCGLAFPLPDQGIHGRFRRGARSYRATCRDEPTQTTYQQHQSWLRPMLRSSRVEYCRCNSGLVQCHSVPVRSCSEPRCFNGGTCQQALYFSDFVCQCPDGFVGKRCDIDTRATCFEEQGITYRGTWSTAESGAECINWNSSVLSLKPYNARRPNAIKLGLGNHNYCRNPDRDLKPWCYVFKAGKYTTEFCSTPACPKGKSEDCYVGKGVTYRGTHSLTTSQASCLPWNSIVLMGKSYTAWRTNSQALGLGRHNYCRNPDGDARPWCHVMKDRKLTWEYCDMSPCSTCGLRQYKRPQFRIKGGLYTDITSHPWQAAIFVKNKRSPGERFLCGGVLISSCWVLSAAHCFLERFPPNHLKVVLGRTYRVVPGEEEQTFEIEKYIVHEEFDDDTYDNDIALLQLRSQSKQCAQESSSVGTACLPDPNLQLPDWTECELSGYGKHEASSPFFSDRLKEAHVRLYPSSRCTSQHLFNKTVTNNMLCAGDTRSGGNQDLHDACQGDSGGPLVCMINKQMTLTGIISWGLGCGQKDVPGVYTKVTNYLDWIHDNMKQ
Description: Inhibition of Plat in mouse Neuro2a cells at 3 nM after 4 hrs by ABPP-SILAC assay

[4] = target: T2, Serine hydrolase-like protein (Mus musculus) (UniProt Q9EPB5)
T2 sequence (whole entry): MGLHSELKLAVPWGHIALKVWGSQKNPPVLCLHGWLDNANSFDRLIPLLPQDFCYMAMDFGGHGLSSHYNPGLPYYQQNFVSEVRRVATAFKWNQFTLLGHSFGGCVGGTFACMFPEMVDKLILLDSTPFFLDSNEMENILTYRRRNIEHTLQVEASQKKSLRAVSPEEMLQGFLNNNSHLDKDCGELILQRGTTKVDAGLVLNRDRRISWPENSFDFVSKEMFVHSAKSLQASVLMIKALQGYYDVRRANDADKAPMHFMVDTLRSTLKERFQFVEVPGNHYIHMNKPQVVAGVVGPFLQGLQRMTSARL
Description: Inhibition of Serhl in mouse Neuro2a cells at 3 nM after 4 hrs by ABPP-SILAC assay

[5] = target: Fatty acid synthase (Mus musculus) (UniProt P19096)
Sequence of Fatty acid synthase (Mus musculus) (P19096 whole entry): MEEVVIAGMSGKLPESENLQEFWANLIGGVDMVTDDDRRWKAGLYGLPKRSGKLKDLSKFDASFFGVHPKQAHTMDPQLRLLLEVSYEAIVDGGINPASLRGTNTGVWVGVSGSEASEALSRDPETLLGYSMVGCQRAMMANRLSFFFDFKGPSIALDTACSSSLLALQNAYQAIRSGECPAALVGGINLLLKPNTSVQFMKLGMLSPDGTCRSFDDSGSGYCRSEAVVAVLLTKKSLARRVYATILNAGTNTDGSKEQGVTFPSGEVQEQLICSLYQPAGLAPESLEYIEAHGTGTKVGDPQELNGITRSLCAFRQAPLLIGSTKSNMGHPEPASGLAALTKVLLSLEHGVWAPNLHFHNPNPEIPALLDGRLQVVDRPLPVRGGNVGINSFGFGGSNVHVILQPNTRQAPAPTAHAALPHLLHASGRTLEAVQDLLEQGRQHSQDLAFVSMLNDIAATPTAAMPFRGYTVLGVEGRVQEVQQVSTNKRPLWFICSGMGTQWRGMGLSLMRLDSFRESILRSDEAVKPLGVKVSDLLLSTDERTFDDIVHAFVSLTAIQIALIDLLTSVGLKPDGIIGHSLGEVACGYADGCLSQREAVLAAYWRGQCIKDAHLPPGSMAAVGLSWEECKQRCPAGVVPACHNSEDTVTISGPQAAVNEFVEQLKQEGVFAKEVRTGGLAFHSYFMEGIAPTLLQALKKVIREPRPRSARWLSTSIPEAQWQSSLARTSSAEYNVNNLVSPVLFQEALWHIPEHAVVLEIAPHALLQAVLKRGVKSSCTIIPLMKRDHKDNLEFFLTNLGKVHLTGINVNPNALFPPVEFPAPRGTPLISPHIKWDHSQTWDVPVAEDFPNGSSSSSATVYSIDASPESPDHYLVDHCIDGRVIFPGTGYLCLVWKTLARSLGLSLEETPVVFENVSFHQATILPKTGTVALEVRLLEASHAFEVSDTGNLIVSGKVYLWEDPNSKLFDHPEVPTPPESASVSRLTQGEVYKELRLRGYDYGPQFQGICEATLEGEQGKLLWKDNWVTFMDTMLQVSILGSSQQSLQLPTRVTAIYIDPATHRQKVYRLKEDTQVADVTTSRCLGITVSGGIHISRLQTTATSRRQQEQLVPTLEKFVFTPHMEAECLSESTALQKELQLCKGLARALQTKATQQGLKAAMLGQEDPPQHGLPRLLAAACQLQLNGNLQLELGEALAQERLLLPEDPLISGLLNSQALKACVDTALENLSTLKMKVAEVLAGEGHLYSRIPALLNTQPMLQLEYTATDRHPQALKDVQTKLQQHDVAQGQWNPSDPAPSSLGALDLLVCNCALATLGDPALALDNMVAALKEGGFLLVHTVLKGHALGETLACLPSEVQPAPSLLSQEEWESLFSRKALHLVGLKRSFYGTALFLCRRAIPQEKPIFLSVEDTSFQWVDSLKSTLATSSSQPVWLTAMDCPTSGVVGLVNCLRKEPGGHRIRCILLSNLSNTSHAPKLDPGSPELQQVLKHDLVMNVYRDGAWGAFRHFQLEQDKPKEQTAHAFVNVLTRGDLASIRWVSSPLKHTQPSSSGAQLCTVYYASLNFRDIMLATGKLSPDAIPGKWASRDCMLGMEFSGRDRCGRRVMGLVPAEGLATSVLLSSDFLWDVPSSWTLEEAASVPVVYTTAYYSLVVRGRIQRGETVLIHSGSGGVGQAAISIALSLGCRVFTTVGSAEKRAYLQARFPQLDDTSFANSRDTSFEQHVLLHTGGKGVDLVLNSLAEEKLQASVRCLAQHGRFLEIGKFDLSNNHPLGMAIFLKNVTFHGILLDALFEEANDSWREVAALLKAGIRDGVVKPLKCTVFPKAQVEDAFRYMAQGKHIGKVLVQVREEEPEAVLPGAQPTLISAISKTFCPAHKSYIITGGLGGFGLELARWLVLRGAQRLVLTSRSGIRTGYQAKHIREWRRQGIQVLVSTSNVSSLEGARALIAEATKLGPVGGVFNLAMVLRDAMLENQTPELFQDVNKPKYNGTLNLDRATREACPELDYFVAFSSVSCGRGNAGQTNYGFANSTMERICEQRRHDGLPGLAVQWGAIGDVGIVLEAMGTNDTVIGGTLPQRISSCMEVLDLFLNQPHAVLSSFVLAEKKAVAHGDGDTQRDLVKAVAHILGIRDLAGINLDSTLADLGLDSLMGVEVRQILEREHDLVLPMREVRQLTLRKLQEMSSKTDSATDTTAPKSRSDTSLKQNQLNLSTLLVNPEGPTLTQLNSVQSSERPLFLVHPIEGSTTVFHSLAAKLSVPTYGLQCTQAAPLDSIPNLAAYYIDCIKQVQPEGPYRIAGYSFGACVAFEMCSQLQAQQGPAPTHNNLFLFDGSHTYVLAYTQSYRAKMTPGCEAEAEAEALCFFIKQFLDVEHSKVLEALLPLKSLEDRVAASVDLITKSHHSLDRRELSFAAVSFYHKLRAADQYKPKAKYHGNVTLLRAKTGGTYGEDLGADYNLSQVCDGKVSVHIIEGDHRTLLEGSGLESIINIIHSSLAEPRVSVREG
Description: Inhibition of Fasn in mouse Neuro2a cells at 3 nM after 4 hrs by ABPP-SILAC assay

[6] = target: T3, Calcium-independent phospholipase A2-gamma (Mus musculus) (UniProt Q8K1N1)
T3 sequence (whole entry): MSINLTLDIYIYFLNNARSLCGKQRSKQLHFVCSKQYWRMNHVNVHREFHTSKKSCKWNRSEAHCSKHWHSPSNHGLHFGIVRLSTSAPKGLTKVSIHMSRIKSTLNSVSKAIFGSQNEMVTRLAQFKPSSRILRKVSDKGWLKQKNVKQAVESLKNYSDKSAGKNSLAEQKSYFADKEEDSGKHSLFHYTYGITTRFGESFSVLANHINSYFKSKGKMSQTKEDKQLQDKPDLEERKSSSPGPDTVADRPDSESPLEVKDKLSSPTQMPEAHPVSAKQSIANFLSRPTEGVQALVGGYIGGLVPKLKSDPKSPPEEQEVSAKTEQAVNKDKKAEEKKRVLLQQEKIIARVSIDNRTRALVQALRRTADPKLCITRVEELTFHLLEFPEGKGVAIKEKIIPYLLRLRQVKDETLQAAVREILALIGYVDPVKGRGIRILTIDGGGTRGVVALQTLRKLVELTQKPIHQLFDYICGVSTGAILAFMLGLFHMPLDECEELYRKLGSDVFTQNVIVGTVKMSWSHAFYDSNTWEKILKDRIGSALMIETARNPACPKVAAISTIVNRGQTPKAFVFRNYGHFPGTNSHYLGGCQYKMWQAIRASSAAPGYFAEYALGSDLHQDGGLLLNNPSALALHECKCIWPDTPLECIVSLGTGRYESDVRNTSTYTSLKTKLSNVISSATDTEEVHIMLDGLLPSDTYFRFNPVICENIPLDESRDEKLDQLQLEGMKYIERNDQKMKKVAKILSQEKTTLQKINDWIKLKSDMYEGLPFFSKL
Description: Inhibition of Pnpla8 in mouse Neuro2a cells at 3 nM after 4 hrs by ABPP-SILAC assay

[7] = target: T4, Marginal zone B- and B1-cell-specific protein (Mus musculus) (UniProt Q9D8I1)
T4 sequence (whole entry): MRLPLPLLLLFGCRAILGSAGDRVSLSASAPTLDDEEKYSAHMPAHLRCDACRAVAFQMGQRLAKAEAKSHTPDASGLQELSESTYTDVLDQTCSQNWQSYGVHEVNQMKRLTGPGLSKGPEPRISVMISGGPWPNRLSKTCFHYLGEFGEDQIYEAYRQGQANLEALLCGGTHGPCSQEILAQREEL
Description: Inhibition of Perp1 in mouse Neuro2a cells at 3 nM after 4 hrs by ABPP-SILAC assay

[8] = target: T5, Serine protease HTRA2, mitochondrial (Mus musculus) (UniProt Q9JIY5)
T5 sequence (whole entry): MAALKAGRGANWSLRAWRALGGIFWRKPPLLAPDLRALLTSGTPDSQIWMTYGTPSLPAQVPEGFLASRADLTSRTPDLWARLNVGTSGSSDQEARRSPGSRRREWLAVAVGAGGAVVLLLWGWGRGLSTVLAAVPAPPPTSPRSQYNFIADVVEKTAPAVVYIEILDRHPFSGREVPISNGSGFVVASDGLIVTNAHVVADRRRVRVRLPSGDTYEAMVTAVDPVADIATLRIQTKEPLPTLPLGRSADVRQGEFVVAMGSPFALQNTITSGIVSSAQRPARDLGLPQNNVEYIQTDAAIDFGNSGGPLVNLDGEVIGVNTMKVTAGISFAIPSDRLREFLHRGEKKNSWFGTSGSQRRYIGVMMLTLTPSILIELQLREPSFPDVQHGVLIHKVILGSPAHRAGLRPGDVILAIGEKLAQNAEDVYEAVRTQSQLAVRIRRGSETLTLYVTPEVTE
Description: Inhibition of Htra2 in mouse Neuro2a cells at 3 nM after 4 hrs by ABPP-SILAC assay

[9] = target: T6, Platelet-activating factor acetylhydrolase IB subunit alpha2 (Mus musculus) (UniProt Q61206)
T6 sequence (whole entry): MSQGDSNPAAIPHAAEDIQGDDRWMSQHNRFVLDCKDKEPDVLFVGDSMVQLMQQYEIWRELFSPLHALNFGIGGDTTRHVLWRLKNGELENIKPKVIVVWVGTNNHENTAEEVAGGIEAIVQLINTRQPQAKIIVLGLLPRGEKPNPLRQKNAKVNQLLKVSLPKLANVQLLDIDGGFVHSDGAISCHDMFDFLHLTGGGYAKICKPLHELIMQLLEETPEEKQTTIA
Description: Inhibition of Pafah1b2 in mouse Neuro2a cells at 3 nM after 4 hrs by ABPP-SILAC assay

[10] = target: T7, Lysophospholipase-like protein 1 (Mus musculus) (UniProt Q3UFF7)
T7 sequence (whole entry): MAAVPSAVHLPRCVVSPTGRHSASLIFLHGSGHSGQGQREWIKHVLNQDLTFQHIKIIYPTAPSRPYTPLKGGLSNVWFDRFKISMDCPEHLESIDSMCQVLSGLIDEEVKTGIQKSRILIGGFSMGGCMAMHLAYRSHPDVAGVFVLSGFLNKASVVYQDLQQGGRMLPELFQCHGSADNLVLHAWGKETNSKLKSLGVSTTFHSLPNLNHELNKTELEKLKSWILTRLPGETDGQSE
Description: Inhibition of Lyplal1 in mouse Neuro2a cells at 3 nM after 4 hrs by ABPP-SILAC assay

Measured: inhibition

Sequence of Dipeptidyl peptidase 9 (Mus musculus) (Q8BVG4 whole entry): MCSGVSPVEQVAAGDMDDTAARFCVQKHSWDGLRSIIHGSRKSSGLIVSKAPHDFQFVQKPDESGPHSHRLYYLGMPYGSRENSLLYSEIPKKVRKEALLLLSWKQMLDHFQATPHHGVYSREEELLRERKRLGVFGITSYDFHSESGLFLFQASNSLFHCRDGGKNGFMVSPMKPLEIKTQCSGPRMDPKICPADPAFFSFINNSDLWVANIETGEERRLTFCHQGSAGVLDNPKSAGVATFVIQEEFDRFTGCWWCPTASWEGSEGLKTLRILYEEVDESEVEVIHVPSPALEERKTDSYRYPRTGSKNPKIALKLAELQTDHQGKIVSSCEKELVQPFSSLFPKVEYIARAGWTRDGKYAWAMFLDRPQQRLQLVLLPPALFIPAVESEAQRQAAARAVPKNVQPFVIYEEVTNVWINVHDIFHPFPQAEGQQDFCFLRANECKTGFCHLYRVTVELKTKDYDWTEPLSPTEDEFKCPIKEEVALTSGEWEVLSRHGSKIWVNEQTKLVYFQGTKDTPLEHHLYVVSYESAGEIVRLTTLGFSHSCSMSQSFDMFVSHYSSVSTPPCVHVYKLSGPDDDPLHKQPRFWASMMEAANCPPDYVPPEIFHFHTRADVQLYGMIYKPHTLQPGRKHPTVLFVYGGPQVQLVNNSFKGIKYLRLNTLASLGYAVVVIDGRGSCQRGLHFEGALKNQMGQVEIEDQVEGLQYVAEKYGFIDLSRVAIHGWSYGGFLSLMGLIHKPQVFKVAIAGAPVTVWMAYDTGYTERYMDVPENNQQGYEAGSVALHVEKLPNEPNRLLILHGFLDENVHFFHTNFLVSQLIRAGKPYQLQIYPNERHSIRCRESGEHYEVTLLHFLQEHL

O=C(O)c1cccc(-c2ccc(-c3cn(C(=O)N4CCCCC4Cc4ccccc4)nn3)cc2)c1 (racemic)
< 50%: [1] | [2] | [3] | [4] | [5] | [6] | [7] | [8] | [9] | [10]

O=C(N1CCCCC1c1ccccc1)n1cc(-c2ccc(-c3cccc(CO)c3)cc2)nn1 (racemic)
< 50%: [1] | [2] | [3] | [4] | [5] | [6] | [7] | [8] | [9] | [10]

O=C(c1cccc(-c2ccc(-c3cn(C(=O)N4CCCCC4c4ccccc4)nn3)cc2)c1)N1CCCCC1 (racemic)
< 50%: [1] | [2] | [3] | [4] | [5] | [6] | [7] | [8] | [9] | [10]
